Experimental findings from ChEMBL document CHEMBL4325857, “Discovery and synthesis of tetrahydropyrimidinedione-4-carboxamides as endothelial lipase inhibitors” (Bioorg Med Chem Lett, 2018) are described below.

Each structure is given as a SMILES string. Some results are limits rather than exact numbers.

Data set [1] is described as follows: Unbound plasma concentration in mouse at 1 mg/kg, iv. The class given is ADME, organism-based.
Data set [2] is described as follows: AUC in mouse at 1 mg/kg, iv. The class given is ADME, organism-based. The following applies: in vivo.
The nature of data set [3]: Metabolic stability in mouse liver microsomes assessed as parent compound remaining after 10 mins. The following applies: read-out: Stability. The class given is ADME, Microsome. Background: Liver microsomes are vesicles of endoplasmic reticulum, rich in cytochrome P450 enzymes.
Data set [4] concerns the target T1, Endothelial lipase (Homo sapiens, UniProt Q9Y5X9).
T1 sequence (Q9Y5X9 whole entry): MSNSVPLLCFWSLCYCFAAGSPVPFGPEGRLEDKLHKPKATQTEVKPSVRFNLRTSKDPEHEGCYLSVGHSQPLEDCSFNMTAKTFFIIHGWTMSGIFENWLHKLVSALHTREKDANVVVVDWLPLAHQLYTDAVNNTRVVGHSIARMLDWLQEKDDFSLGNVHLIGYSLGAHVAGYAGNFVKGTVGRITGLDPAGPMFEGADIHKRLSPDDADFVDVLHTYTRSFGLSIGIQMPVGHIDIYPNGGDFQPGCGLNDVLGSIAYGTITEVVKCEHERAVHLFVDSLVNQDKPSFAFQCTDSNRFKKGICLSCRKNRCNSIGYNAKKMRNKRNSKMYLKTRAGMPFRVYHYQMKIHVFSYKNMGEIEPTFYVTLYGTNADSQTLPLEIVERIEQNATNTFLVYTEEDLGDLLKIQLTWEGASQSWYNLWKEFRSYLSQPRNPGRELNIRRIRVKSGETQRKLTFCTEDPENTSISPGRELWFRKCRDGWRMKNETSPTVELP
Description: Inhibition of endothelial lipase (unknown origin) using D31-POPC-HDL as substrate after 2 hrs in presence of human serum by LC/MS analysis.

Data set [5] can be described thus: Permeability of compound at pH 5.5 by PAMPA. In kind it is ADME. The following applies: read-out: permeability. In general terms: In PAMPA a lipid-coated filter parts donor from acceptor wells.
A short description of data set [6]: Permeability of compound at pH 7.4 by PAMPA. In kind it is ADME. The following applies: read-out: permeability.
Data set [7] concerns the target T1, Endothelial lipase. As to the kind of experiment: Inhibition of recombinant human endothelial lipase expressed in African green monkey COS7 cells using HDL as substrate pretreated for 10 mins followed by substrate addition and measured after 30 mins by LC/MS/MS analysis.
Data set [8] can be described thus: Half life in mouse at 1 mg/kg, iv. The following applies: in vivo. The class given is ADME, organism-based.
Data set [9] in a line: AUC in mouse at 1 mg/kg, po. The class given is ADME, organism-based. The following applies: in vivo.
Data set [10] is described as follows: Oral bioavailability in mouse at 1 mg/kg. In kind it is ADME, organism-based. The following applies: in vivo.
Data set [11] is described as follows: Bioavailability in mouse at 1 mg/kg, […]. In kind it is ADME, organism-based. The following applies: in vivo.

As for `CCN1CC(C(=O)NC(C)CCc2ccc(Cl)c(Cl)c2)=C(O)C1=O` (stereo not drawn), the fraction unbound (as a rule, free concentration divided by total concentration) in data set [1] is 0.023. In data set [2], the AUC (in general, the area under the concentration-time curve, a measure of exposure) was 300 µM·h. Moreover, the remaining at 10 min in data set [3] was 92%. In [4], the IC50 (commonly the point on the concentration scale where inhibition reaches its midpoint) was more than 476000 nM. Further, the Papp was found to be 50.8 ×10⁻⁶ cm/s in data set [5] and 3.5 ×10⁻⁶ cm/s in data set [6].

The compound `O=C(N[C@H]1CC[C@@H](c2ccccc2)CC1)c1[nH]c(=O)[nH]c(=O)c1O` returned a fraction unbound in [1] of 0.15. In data set [2], this compound came in with an AUC of 5.5 µM·h. Also, the remaining at 10 min in data set [3] was found to be 100%. Besides, the values for the IC50 in data set [7] and in data set [4] were 26 nM and 25000 nM, respectively. For the same compound, the Papp was 42.7 ×10⁻⁶ cm/s in data set [5] and 1.2 ×10⁻⁶ cm/s in data set [6]. Besides, in [8], the half-life (usually the time needed for the level to fall by half in the phase considered) was 1.1 h.

Consider `CO[C@]1(c2ccc(F)cc2)CC[C@@H](NC(=O)c2[nH]c(=O)[nH]c(=O)c2N)CC1`, for which the IC50 in data set [7] turned out to be 1010 nM.

Turning to `O=C(N[C@H]1CC[C@@H](c2ccccc2)CC1)c1[nH]c(=O)[nH]c(=O)c1NC1CCCC1`, the IC50 in [7] came out at 156 nM; in [4] it was 436000 nM.

On to `O=C(N[C@H]1CC[C@@H](c2ccccc2)CC1)c1[nH]c(=O)n(Cc2ccccc2)c(=O)c1O`, for which the half-maximal inhibitory concentration (IC50) in [7] was 117 nM; in data set [4] it was 32000 nM. The results for the Papp in data set [5] and in data set [6] were 27.7 ×10⁻⁶ cm/s and 15.8 ×10⁻⁶ cm/s, respectively.

As to `Nc1c(C(=O)N[C@H]2CC[C@@H](c3ccccc3)CC2)[nH]c(=O)[nH]c1=O`, in [7], the IC50 came out at 91 nM.

With `Nc1c(C(=O)N[C@@H]2CC[C@H](c3ccccc3)C2)[nH]c(=O)[nH]c1=O`, the IC50 was 175 nM in data set [7] and 231000 nM in [4].

On to `Nc1c(C(=O)N[C@@H]2CCc3cc(OCc4ccccc4)ccc32)[nH]c(=O)[nH]c1=O`, for which the remaining at 10 min in data set [3] is 85%. The IC50 in data set [7] came out at 17 nM; in data set [4], 80000 nM. Moreover, in [6], the Papp is 76.8 ×10⁻⁶ cm/s.

As to `CC(C)Cn1c(=O)[nH]c(C(=O)N[C@H]2CC[C@@H](c3ccccc3)CC2)c(O)c1=O`, the remaining at 10 min in data set [3] amounted to 100%. Further, the IC50 in [7] is 59 nM; in data set [4] it was 48000 nM.

In the case of `Nc1c(C(=O)N[C@H]2CC[C@@H](c3ccc(OCc4ccccc4)cc3)CC2)[nH]c(=O)[nH]c1=O`, in [3], the remaining at 10 min amounted to 85%. Also, the figures for the IC50 in [7] and in data set [4] were 21 nM and 35000 nM, respectively.

Take `Nc1c(C(=O)N[C@H]2CC[C@@H](c3ccccc3)C2)[nH]c(=O)[nH]c1=O`: the IC50 was 218 nM in data set [7] and more than 952000 nM in data set [4].

As to `Nc1c(C(=O)N[C@@H]2CCCc3c(OCc4ccccc4)cccc32)[nH]c(=O)[nH]c1=O`, the AUC in [9] turned out to be 79 µM·h; in [2], 140 µM·h. This compound also yielded a fraction unbound in data set [1] of 0.015. Also, the remaining at 10 min in data set [3] stood at 79%. Moreover, the bioavailability in data set [10] and in data set [11] was 55% throughout. Also, the values for the IC50 in data set [7] and in [4] were 49 nM and 81000 nM, respectively. Also, the Papp in data set [5] came to 96 ×10⁻⁶ cm/s; in [6] it was 71.2 ×10⁻⁶ cm/s. Besides, the half-life in data set [8] is 6.7 h.

Regarding `Nc1c(C(=O)N[C@H]2CC[C@@H](c3ccccc3)CC2)n(-c2ccccc2)c(=O)[nH]c1=O`, in data set [7], the IC50 was 2350 nM.

`Nc1c(C(=O)N[C@@H]2CC[C@H](c3ccccc3)c3ccccc32)[nH]c(=O)[nH]c1=O`: the AUC in data set [2] was found to be 11 µM·h. Besides, in data set [3], the remaining at 10 min worked out at 92%. For the same compound, the IC50 in data set [7] is 50 nM; in data set [4] it was 76000 nM. The Papp in [5] turned out to be 28.9 ×10⁻⁶ cm/s; in data set [6] it was 32.2 ×10⁻⁶ cm/s. Further, in data set [8], the half-life is 1.4 h.

On to `O=C(N[C@H]1CC[C@@H](c2ccccc2)CC1)c1[nH]c(=O)n(CCO)c(=O)c1O`, for which the IC50 was 80 nM in data set [7] and more than 143000 nM in data set [4].

Regarding `CCN1CC(C(=O)N[C@H]2CC[C@@H](c3ccccc3)CC2)=C(O)C1=O`, the IC50 in data set [7] worked out at 82 nM.
